Experimental data published in patent US20250243488A1, “METHODS OF MODULATING PROGRANULIN EXPRESSION USING ANTISENSE OLIGONUCLEOTIDES TARGETING REGULATORY RNAS” (Camp4 Therapeutics Corporation, priority 2022, published 2025).
Oligonucleotides are written 5' to 3', each unit as a sugar letter and its base; * is a phosphorothioate linkage, no mark a phosphodiester; rarer units and linkages stand in square brackets, end groups in braces. Plain capitals give the bases only. e = 2'-O-(2-methoxyethyl) (MOE); l = locked nucleic acid (LNA); [5mC] = 5-methylcytosine; d = 2'-deoxy (DNA)

System: GRN mRNA
Assay: GRN mRNA qPCR in SK-N-AS cells transfected with ASOs
Format: cell-based, human
Conditions: SK-N-AS; for hGRN mRNA FC / 120 nM FC (GRN mRNA): 120 nM; for hGRN mRNA FC / 30 nM FC (GRN mRNA) / 60 nM FC (GRN mRNA) / 120 nM FC (GRN mRNA) / 3.75 nM FC (GRN mRNA) / 7.5 nM FC (GRN mRNA) / 15 nM FC (GRN mRNA): normalized to CO-1589; for hit identification (GRN mRNA dose escalation): 3.75 nM to 120 nM
Method in brief: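 Human neuroblastoma SK-N-AS cells transfected with ASOs at increasing concentrations (20 to 160 nM in initial titrations); GRN mRNA quantified by qPCR after 48 hours. Normalized to GAPDH and PPIA, fold change relative to steric non-targeting control ASO(s) (sNTC/CO-1589, with CO-3772 and CO-1929 in some series).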

[1] = Table 9, 48 hours post-transfection

Substance | 30 nM FC (GRN mRNA) (Table 12) [FC] | 60 nM FC (GRN mRNA) (Table 12) [FC] | 120 nM FC (GRN mRNA) (Table 12) [FC] | hGRN mRNA FC [1] [FC] | further results
CO-6446: ASO designed to target an intragenic enhancer RNA (eRNA) (eT*eG*e[5mC]*eT*eG*eT*eG*eA*eG*e[5mC]*eT*eG*e[5mC]*e[5mC]*e[5mC]*eA*eG*eT*eG*eG) | – | – | – | – | hGRN mRNA FC (Table 11, 48 hours): 1.1 FC
CO-6515: ASO based on parent ASO CO-3462 (antisense eT*eA*eGeGeAeGeAeAeTe[5mC]eGe[5mC]eT*eT*eT*eG*eG*eG*eA*eG) | 1.2 | 1.8 | 1.7 | – | –
CO-6516: ASO based on parent ASO CO-3462 (antisense eT*eA*eGeGeAeGeAeAeTe[5mC]eGe[5mC]eTeTeT*eG*eG*eG*eA*eG) | 1.0 | 1.4 | 1.0 | – | –
CO-4639: ASO designed to target intergenic enhancers (eRNA) (antisense eG*eA*eA*eA*eT*eT*eT*eA*eT*eG*e[5mC]*eG*eG*e[5mC]*e[5mC]*eA*e[5mC]*eT*eG*eT) | – | – | – | 1.1 | –
CO-6436: ASO designed to target an intragenic enhancer RNA (eRNA) (eT*eG*eT*e[5mC]*e[5mC]*e[5mC]*e[5mC]*eA*e[5mC]*eT*e[5mC]*eA*eG*eG*e[5mC]*e[5mC]*eA*e[5mC]*e[5mC]*eT) | – | – | – | – | hGRN mRNA FC (Table 11, 48 hours): 1.1 FC
CO-6403: ASO based on parent ASO CO-3462 (antisense eG*eG*eT*eA*eG*eG*eA*dG*dA*dA*dT*d[5mC]*dG*d[5mC]*dT*dT*dT*eG*eG*eG*eA*eG*e[5mC]*eA) | 1.6 | 2.2 | 2.4 | – | –
CO-6396: ASO based on parent ASO CO-3462 (antisense eT*eA*eG*lG*eA*eG*eA*lA*eT*e[5mC]*eG*l[5mC]*eT*eT*eT*lG*eG*eG*eA*eG) | 1.4 | 1.9 | 1.9 | – | –
CO-6443: ASO designed to target an intragenic enhancer RNA (eRNA) (eG*e[5mC]*e[5mC]*e[5mC]*eT*eG*eA*e[5mC]*eA*e[5mC]*eG*e[5mC]*eA*e[5mC]*e[5mC]*eT*eT*eA*e[5mC]*eA) | – | – | – | – | hGRN mRNA FC (Table 11, 48 hours): 1.0 FC
CO-6421: ASO based on parent ASOs CO-4363 and CO-4364 (eG*eG*eA*e[5mC]*eT*lT*eG*eG*eG*eA*eG*lT*eG*eG*eT*eG*eA*l[5mC]*eT*eG*eA*eA*e[5mC]) | – | – | – | – | 30 nM FC (GRN mRNA) (Table 13): 1.3 FC; 60 nM FC (GRN mRNA) (Table 13): 2.1 FC; 120 nM FC (GRN mRNA) (Table 13): 1.7 FC
CO-6380: ASO based on parent ASO CO-3462 (antisense eA*eA*eA*eA*e[5mC]*eA*eA*eA*e[5mC]*eA*e[5mC]*eA*e[5mC]*eA*eA*eG*eT*e[5mC]*e[5mC]*eG) | 0.8 | 0.8 | 0.8 | – | –
CO-4648: ASO designed to target intergenic enhancers (eRNA) (antisense eA*e[5mC]*eG*e[5mC]*e[5mC]*eA*eA*eA*e[5mC]*e[5mC]*e[5mC]*eT*eT*eG*eA*eT*e[5mC]*e[5mC]*eA*eG) | – | – | – | 1.6 | –
CO-4588: ASO designed to target intergenic enhancers (eRNA) (antisense eG*e[5mC]*eT*eG*eG*eT*eT*eT*e[5mC]*eT*e[5mC]*eT*eG*eT*eT*eA*eG*eG*eA*e[5mC]) | – | – | – | 0.9 | –
CO-6522: ASO based on parent ASO CO-3462 (antisense eT*eA*eG*eG*eA*eG*eA*eA*eT*e[5mC]*eG*e[5mC]eTeTeTeGeGeG*eA*eG) | 1.1 | 1.0 | 1.1 | – | –
CO-4589: ASO designed to target intergenic enhancers (eRNA) (antisense e[5mC]*eG*e[5mC]*eA*eG*eG*e[5mC]*eT*eA*eG*eG*eA*eG*eT*eA*e[5mC]*e[5mC]*e[5mC]*eA*eT) | – | – | – | 1.1 | –
CO-4593: ASO designed to target intergenic enhancers (eRNA) (antisense eT*eT*eT*eT*eG*e[5mC]*e[5mC]*e[5mC]*eA*eG*e[5mC]*eG*e[5mC]*e[5mC]*e[5mC]*e[5mC]*eT*eT*eT*eA) | – | – | – | 0.8 | –
CO-4613: ASO designed to target intergenic enhancers (eRNA) (antisense eA*eT*e[5mC]*eA*eA*eG*eG*eG*eT*eT*eT*eG*eG*e[5mC]*eG*eT*eT*eT*eA*eG) | – | – | – | 1.6 | hit identification (GRN mRNA dose escalation) (48 hours): initial hits; 3.75 nM FC (GRN mRNA) (Table 10, 48 hours): 1.0 FC; 7.5 nM FC (GRN mRNA) (Table 10, 48 hours): 1.1 FC; 15 nM FC (GRN mRNA) (Table 10, 48 hours): 1.2 FC; 30 nM FC (GRN mRNA) (Table 10, 48 hours): 1.1 FC; 60 nM FC (GRN mRNA) (Table 10, 48 hours): 1.2 FC; 120 nM FC (GRN mRNA) (Table 10, 48 hours): 1.4 FC

Substance | 30 nM FC (GRN mRNA) (Table 12) [FC] | 60 nM FC (GRN mRNA) (Table 12) [FC] | 120 nM FC (GRN mRNA) (Table 12) [FC] | hGRN mRNA FC [1] [FC] | further results
CO-4619: ASO designed to target intergenic enhancers (eRNA) (antisense eT*eG*eA*eT*eA*eT*eA*eG*eA*eG*eA*eT*e[5mC]*eT*eG*e[5mC]*eA*eG*e[5mC]*e[5mC]) | – | – | – | 1.3 | hit identification (GRN mRNA dose escalation) (48 hours): initial hits; 3.75 nM FC (GRN mRNA) (Table 10, 48 hours): 1.0 FC; 7.5 nM FC (GRN mRNA) (Table 10, 48 hours): 1.1 FC; 15 nM FC (GRN mRNA) (Table 10, 48 hours): 1.3 FC; 30 nM FC (GRN mRNA) (Table 10, 48 hours): 1.2 FC; 60 nM FC (GRN mRNA) (Table 10, 48 hours): 1.2 FC; 120 nM FC (GRN mRNA) (Table 10, 48 hours): 1.6 FC
CO-4621: ASO designed to target intergenic enhancers (eRNA) (antisense e[5mC]*eG*e[5mC]*eT*eG*e[5mC]*eT*eG*eT*eT*eT*eG*eG*eA*eA*e[5mC]*eG*eA*eG*eT) | – | – | – | 1.2 | –
CO-6433: ASO designed to target an intragenic enhancer RNA (eRNA) (eG*e[5mC]*eA*e[5mC]*eT*eG*e[5mC]*eT*eG*e[5mC]*e[5mC]*e[5mC]*e[5mC]*e[5mC]*eA*eA*eG*eA*e[5mC]*eA) | – | – | – | – | hGRN mRNA FC (Table 11, 48 hours): 0.9 FC
CO-4590: ASO designed to target intergenic enhancers (eRNA) (antisense eG*eT*e[5mC]*eA*eA*eA*eG*eT*e[5mC]*eG*eA*eG*eG*e[5mC]*e[5mC]*eT*eA*e[5mC]*e[5mC]*e[5mC]) | – | – | – | 1.3 | –
CO-4651: ASO designed to target intergenic enhancers (eRNA) (antisense eT*eA*eG*eG*e[5mC]*eA*e[5mC]*e[5mC]*e[5mC]*eA*eA*eG*eG*e[5mC]*eT*eT*eT*eA*eT*eT) | – | – | – | 1.3 | –
CO-6397: ASO based on parent ASO CO-3462 (antisense eT*eA*eG*eG*eA*lG*eA*eA*eT*e[5mC]*lG*e[5mC]*eT*eT*eT*lG*eG*eG*eA*eG) | 1.4 | 1.8 | 1.8 | – | –
CO-4641: ASO designed to target intergenic enhancers (eRNA) (antisense e[5mC]*eG*eT*eT*e[5mC]*e[5mC]*eA*eA*eA*e[5mC]*eA*eG*e[5mC]*eA*eG*e[5mC]*eG*eT*eT*eA) | – | – | – | 0.9 | –
CO-6442: ASO designed to target an intragenic enhancer RNA (eRNA) (e[5mC]*eT*eG*eG*eG*eA*eG*e[5mC]*e[5mC]*eT*eG*eG*e[5mC]*eT*eG*eA*eT*eG*e[5mC]*eA) | – | – | – | – | hGRN mRNA FC (Table 11, 48 hours): 1.2 FC
CO-6402: ASO based on parent ASO CO-3462 (antisense eG*eT*eA*eG*eG*lA*dG*dA*lA*dT*d[5mC]*dG*d[5mC]*lT*dT*dT*lG*eG*eG*eA*eG*e[5mC]) | 1.5 | 1.6 | 1.8 | – | –
CO-6434: ASO designed to target an intragenic enhancer RNA (eRNA) (eT*e[5mC]*e[5mC]*eG*eA*eT*e[5mC]*eA*e[5mC]*e[5mC]*eT*eG*e[5mC]*eA*e[5mC]*eT*eG*e[5mC]*eT*eG) | – | – | – | – | hGRN mRNA FC (Table 11, 48 hours): 0.9 FC
CO-6425: ASO based on parent ASOs CO-4363 and CO-4364 (eG*eG*eG*eA*e[5mC]*eT*eT*eG*eG*eG*eA*eG*eT*eG*eG*eT*eG*eA*e[5mC]*eT*eG*eA*eA*e[5mC]) | – | – | – | – | 30 nM FC (GRN mRNA) (Table 13): 0.9 FC; 60 nM FC (GRN mRNA) (Table 13): 1.3 FC; 120 nM FC (GRN mRNA) (Table 13): 1.3 FC
CO-6418: ASO based on parent ASOs CO-4363 and CO-4364 (eG*eG*eA*e[5mC]*eT*lT*eG*eG*eG*eA*lG*eT*eG*eG*eT*lG*eA*e[5mC]*eT*eG*eA) | – | – | – | – | 30 nM FC (GRN mRNA) (Table 13): 1.6 FC; 60 nM FC (GRN mRNA) (Table 13): 1.6 FC; 120 nM FC (GRN mRNA) (Table 13): 1.9 FC
CO-6411: ASO based on parent ASO CO-3462 (antisense eT*eA*eGeGeA*eG*eA*eA*eT*e[5mC]*eG*e[5mC]*eT*eT*eT*eGeGeG*eA*eG) | 1.1 | 1.4 | 1.8 | – | –
CO-6517: ASO based on parent ASO CO-3462 (antisense eT*eA*eGeGeAeGeAeAeTe[5mC]eGe[5mC]eTeTeTeGeG*eG*eA*eG) | 1.2 | 2.3 | 2.0 | – | –
CO-6406: ASO based on parent ASO CO-3462 (antisense eG*eG*eT*eA*eG*dG*dA*lG*dA*dA*lT*d[5mC]*dG*l[5mC]*dT*dT*lT*dG*dG*eG*eA*eG*e[5mC]*eA) | 1.4 | 1.4 | 1.7 | – | –
